Data on 32 compounds can be found in US20090018163A1, “Substituted Heterocyclic Ethers and Their Use in CNS Disorders” (Bristol-Myers Squibb Company, priority 2007, published 2009).

pIC50: −log10 of the molar value. Like-named read-outs stand apart in the source and are kept apart here.

One experiment concerns the target T1, NK-1 (Homo sapiens, UniProt P25103).
T1 construct: 30 ul/well of a 2×U373 membrane preparation; endogenous in cells; host or cells: U373 cells (crude membrane preparation)
The experiment is described as follows: NK1 radioligand binding assay. The settings on record: U373 membrane preparation, [125I]Substance P. How it is done:
(§1) NK-1 Binding assay. Crude membrane suspensions were prepared for the NK1 and SERT radioligand binding assays from U373 cells or recombinant HEK-293 cells expressing hSERT, respectively. Cells were harvested from T-175 flasks as follows. The medium is removed from the flasks and the cells rinsed with HBSS without Ca and without Mg. The cells are then incubated for 5-10 minutes in 10 mM Tris-Cl, pH 7.5, 5 mM EDTA before the cells are lifted with a combination of pipetting and scraping, as needed. To prepare membranes, the cell suspension is collected into centrifuge bottles and homogenized for 30 seconds with a Polytron homogenizer. The suspension is centrifuged for 30 min @ 32,000×g, 4° C., then the supernatant is decanted and the pellet resuspended and homogenized in 50 mM Tris-Cl, pH 7.5, 1 mM EDTA for 10 seconds. The suspension is then centrifuged again for 30 min @ 32,000×g, 4° C. The supernatant is decanted and the pellet resuspended in 50 mM Tris-Cl, pH 7.5, 1 mM EDTA and briefly homogenized. A Bradford assay (Bio-rad) is performed and the membrane preparation diluted to 2 mg/ml with 50 mM Tris-Cl, pH 7.5, 1 mM EDTA. Aliquots are prepared, and then frozen and stored at −80° C.
NK1 radioligand binding assay. Compounds are dissolved in 100% DMSO at a concentration 100× the desired highest assay concentration, serially diluted 1:3 in 100% DMSO, and 0.6 ul/well of each solution is dispensed to a Nunc polypropylene, round bottom, 384 well plate. 100% inhibition is defined with 0.6 ul/well of 1 mM L-733,060 (Sigma L-137) dissolved in DMSO. 30 ul/well of a 2×U373 membrane preparation (267 ug/ml in 100 mM Tris-Cl, pH 7.5, 6 mM MgCl2, 0.2% (v/v) Sigma mammalian protease inhibitor cocktail (Sigma P-8340), and 4 ug/ml chymostatin, Sigma C-7268) and 30 ul/well of a 2× radioligand solution (400 pM [^125I]Substance P (Perkin Elmer NEX-190) in 1% (w/v) BSA (Sigma A-2153), 0.1 mg/ml bacitracin, Sigma B-0125) are added to the well and the reaction incubated for 1 hour at room temperature. The contents of the assay plate are then transferred to a Millipore MultiscreenHTS GF/B filter plate which has been pretreated with 0.5% PEI for at least one hour. The plate is vacuum filtered and washed with 7 washes of 100 ul/well of 20 mM Tris-Cl, pH 7.5, 0.5% (w/v) BSA chilled to 4° C. The filtration and washing is completed in less than 90 s. The plates are air-dried overnight, 12 ul/well of MicroScint scintillation fluid added, and the plates counted in a Trilux.
(§2) Data analysis. The raw data are normalized to percent inhibition using control wells defining 0% (DMSO only) and 100% (selective inhibitor) inhibition which are run on each plate. Each plate is run in triplicate, and the concentration response curve thus generated is fit using the four-parameter dose response equation, Y=Bottom+(Top-Bottom)/(1+10̂((LogIC50−X)*HillSlope)) in order to determine the IC50 value for each compound. The radioligand concentration chosen for each assay corresponds to the Kd concentration determined through saturation binding analysis for each assay.

For another experiment, the target named is T2, hSERT (Homo sapiens, UniProt P31645).
T2 construct: expressed in transfected cells; host or cells: HEK-293 cells (crude membrane preparation)
The experiment in a line: SERT radioligand binding assay. How it is done:
as §1
SERT radioligand binding assay. Compounds are dissolved in 100% DMSO at a concentration 100× the desired highest assay concentration, serially diluted 1:3 in 100% DMSO, and 0.4 ul/well of each solution is dispensed to a Nunc polypropylene, round bottom, 384 well plate. 100% inhibition is defined with 0.4 ul/well of 1 mM fluoxetine (Sigma F-132) dissolved in DMSO. 20 ul/well of a 2×HEK-hSERT membrane preparation (15 ug/ml in 50 mM Tris-Cl, pH 7.5, 120 mM NaCl, 5 mM KCl) and 20 ul/well of a 2× radioligand solution (520 pM [^125I]RTI-55 (Perkin-Elmer NEX-272) in 50 mM Tris-Cl, pH 7.5, 120 mM NaCl, 5 mM KCl) are added to each well and the reaction incubated for 1 hour at room temperature. The contents of the assay plate are then transferred to a Millipore MultiscreenHTS GF/B filter plate which has been pretreated with 0.5% PEI for at least one hour. The plate is vacuum filtered and washed with 7 washes of 100 ul/well of 50 mM Tris-Cl, pH 7.5, 120 mM NaCl, 5 mM KCl chilled to 4° C. The filtration and washing is completed in less than 90 s. The plates are air-dried overnight, 12 ul/well of MicroScint scintillation fluid added, and the plates counted in a Trilux.
as §2

Where [1] appears, read: HEK-hSERT membrane preparation, [125I]RTI-55, Table 1, read-out: SERT IC50.
[2] abbreviates: HEK-hSERT membrane preparation, [125I]RTI-55, Table 1a, single enantiomers, read-out: SERT IC50.

T2 sequence (P31645 whole entry): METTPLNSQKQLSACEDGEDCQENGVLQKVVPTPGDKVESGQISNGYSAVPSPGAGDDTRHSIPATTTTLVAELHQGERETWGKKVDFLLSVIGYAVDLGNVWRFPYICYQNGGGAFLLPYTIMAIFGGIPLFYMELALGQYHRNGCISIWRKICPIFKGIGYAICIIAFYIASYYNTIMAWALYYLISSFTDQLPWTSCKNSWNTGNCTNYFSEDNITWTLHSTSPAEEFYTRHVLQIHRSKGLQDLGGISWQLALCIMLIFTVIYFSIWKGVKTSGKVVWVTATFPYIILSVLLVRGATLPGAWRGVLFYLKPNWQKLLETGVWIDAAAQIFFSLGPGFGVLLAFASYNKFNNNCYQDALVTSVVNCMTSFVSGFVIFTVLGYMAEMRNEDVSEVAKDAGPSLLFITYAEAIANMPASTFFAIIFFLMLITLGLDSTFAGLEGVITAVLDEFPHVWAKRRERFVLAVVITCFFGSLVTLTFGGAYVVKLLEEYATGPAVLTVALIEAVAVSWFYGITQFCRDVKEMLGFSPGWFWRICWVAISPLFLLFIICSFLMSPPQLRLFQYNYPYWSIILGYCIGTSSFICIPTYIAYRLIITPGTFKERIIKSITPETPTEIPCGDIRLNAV
T1 sequence (P25103 whole entry): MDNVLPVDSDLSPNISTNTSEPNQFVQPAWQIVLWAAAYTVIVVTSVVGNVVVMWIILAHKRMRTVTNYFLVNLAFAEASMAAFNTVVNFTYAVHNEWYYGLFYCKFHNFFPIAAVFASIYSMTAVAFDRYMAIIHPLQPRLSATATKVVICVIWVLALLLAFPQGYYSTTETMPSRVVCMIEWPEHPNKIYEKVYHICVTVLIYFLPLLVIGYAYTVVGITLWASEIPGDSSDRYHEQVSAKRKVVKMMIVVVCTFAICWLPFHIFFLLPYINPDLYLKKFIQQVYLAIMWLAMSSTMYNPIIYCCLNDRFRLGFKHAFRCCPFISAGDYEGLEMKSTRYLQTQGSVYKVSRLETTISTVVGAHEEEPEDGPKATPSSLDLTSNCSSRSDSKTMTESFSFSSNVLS

A word on the pIC50: it is the IC50 on a negative log10 scale, so that one unit is a factor of ten. On to `COc1ccc2nc(COCC3(c4ccccc4)CCNCC3)ccc2c1` [Example 11], for which the figures for the negative logarithm of the IC50 (pIC50) at NK-1 (Table 1) and at hSERT (setting [1]) were under 6.52 and 7.00 to 11.00, respectively.

In the case of `Cc1cc(C(C)OCC2(c3ccc(F)cc3F)CCN(C)CC2)c2ncccc2c1` (stereo not shown) [Example 43], the pIC50 on NK-1 (Table 1) and at hSERT (setting [1]) was 7.00 to 11.00 throughout.

Take `N#Cc1ccc(-c2cc(COCC3(c4ccccc4)CCNCC3)nc3ccccc23)cc1` [Example 15, 4-(2-(((4-phenylpiperidin-4-yl)methoxy)methyl)quinolin-4-yl)benzonitrile]: the negative logarithm of the IC50 (pIC50) on NK-1 (Table 1) is under 6.52; on hSERT (setting [1]), 7.00 to 11.00.

Turning to `Cc1cc(C(C)OCC2(c3ccc(F)cc3)CCN(C)CC2)c2ncccc2c1` (single isomer, unassigned) [Example 75], the pIC50 was under 6.52 on NK-1 (Table 1a, single enantiomers) and 7.00 to 11.00 at hSERT.

`CN1CCC(COCc2cc(C(F)(F)F)cc3cccnc23)(c2ccc(F)cc2)CC1` [Example 32, 8-(((4-(4-fluorophenyl)-1-methylpiperidin-4-yl)methoxy)methyl)-6-(trifluoromethyl)quinoline]: the pIC50 on NK-1 (Table 1) and on hSERT (setting [1]) was 7.00 to 11.00 each time.

Regarding `c1ccc(C2(COCc3cccc4cccnc34)CCNCC2)cc1` [Example 31, 8-(((4-phenylpiperidin-4-yl)methoxy)methyl)quinoline], the pIC50 on NK-1 (Table 1) was under 6.52; at hSERT (setting [1]) it was 7.00 to 11.00.

On to `Cc1cc(C(C)OCC2(c3ccc(F)cc3)CCN(C)CC2)c2ncccc2c1` (stereo not shown) [Example 40], for which the pIC50 on NK-1 (Table 1) and on hSERT (setting [1]) was 7.00 to 11.00 each time.

In the case of `Cc1cc(C(C)OCC2(c3ccc(F)cc3)CCN(C)CC2)c2nc(N(C)C)ccc2c1` (stereo not shown) [Example 51], the values for the pIC50 at NK-1 (Table 1) and on hSERT (setting [1]) were 7.00 to 11.00 and 6.52 to 7.00, respectively.

For the compound `CC(OCC1(c2ccccc2)CCNCC1)c1cc(C(F)(F)F)cc2cccnc12` (stereo not shown) [Example 35], the pIC50 on NK-1 (Table 1) and at hSERT (setting [1]) was 7.00 to 11.00 in each case.

`Cc1cc(C(C)OCC2(c3ccccc3)CCNCC2)c2ncccc2c1` (stereo not shown) [Example 41]: the pIC50 at NK-1 (Table 1) and on hSERT (setting [1]) was 7.00 to 11.00 in each case.

Consider `Cc1cc(COCC2(c3ccccc3)CCNCC2)nc2ccccc12` [Example 3], for which the pIC50 is 6.52 to 7.00 at NK-1 (Table 1) and 7.00 to 11.00 at hSERT (setting [1]).

In the case of `N#Cc1cc(COCC2(c3ccccc3)CCNCC2)nc2ccccc12` [Example 14, 2-(((4-phenylpiperidin-4-yl)methoxy)methyl)quinoline-4-carbonitrile], the pIC50 was under 6.52 on NK-1 (Table 1) and 7.00 to 11.00 on hSERT (setting [1]).

Turning to `CN(C)c1cc(COCC2(c3ccccc3)CCNCC2)nc2ccccc12` [Example 16, N,N-dimethyl-2-(((4-phenylpiperidin-4-yl)methoxy)methyl)quinolin-4-amine], the figures for the pIC50 on NK-1 (Table 1) and at hSERT (setting [1]) were under 6.52 and 7.00 to 11.00, respectively.

As for `Cc1cc(COCC2(c3ccc(F)cc3)CCN(C)CC2)c2ncccc2c1` [Example 30], the negative-log IC50 (pIC50) on NK-1 (Table 1) and on hSERT (setting [1]) was 7.00 to 11.00 in each case.

Turning to `CC(OCC1(c2ccccc2)CCNCC1)c1cc(C(F)(F)F)cc2cccnc12` (single isomer, unassigned) [Example 71], the pIC50 at NK-1 (Table 1a, single enantiomers) was 7.00 to 11.00; at hSERT (setting [2]), 7.00 to 11.00.

In the case of `FC(F)(F)c1ccnc2ccc(COCC3(c4ccccc4)CCNCC3)cc12` [Example 47, 6-(((4-phenylpiperidin-4-yl)methoxy)methyl)-4-(trifluoromethyl)quinoline], the negative logarithm of the IC50 (pIC50) on NK-1 (Table 1) is under 6.52; at hSERT (setting [1]), 7.00 to 11.00.

As for `CN1CCC(COCc2cc(C#N)cc3cccnc23)(c2ccc(F)cc2)CC1` [Example 44, 8-(((4-(4-fluorophenyl)-1-methylpiperidin-4-yl)methoxy)methyl)quinoline-6-carbonitrile], the negative-log IC50 (pIC50) on NK-1 (Table 1) was under 6.52; at hSERT it was 7.00 to 11.00.

For the compound `c1ccc(C2(COCc3ccc4ccccc4n3)CCNCC2)cc1` [Example 5], the negative logarithm of the IC50 (pIC50) on NK-1 (Table 1) was under 6.52; on hSERT (setting [1]), 7.00 to 11.00.

`CN1CCC(COCc2cc(Br)cc3cccnc23)(c2ccccc2)CC1` [Example 23]: the negative-log IC50 (pIC50) at NK-1 (Table 1) and at hSERT (setting [1]) was 7.00 to 11.00 in each case.

`CC(OCC1(c2ccc(F)cc2)CCN(C)CC1)c1cc(C(F)(F)F)cc2cccnc12` (single isomer, unassigned) [Example 69]: the pIC50 on NK-1 (Table 1a, single enantiomers) is under 6.52; at hSERT (read-out: SERT IC50, HEK-hSERT membrane preparation, [125I]RTI-55, Table 1a, single enantiomers), 7.00 to 11.00.

For the compound `CC(OCC1(c2ccccc2)CCN(C)CC1)c1cc(C(F)(F)F)cc2cccnc12` (stereo not shown) [Example 36], the negative logarithm of the IC50 (pIC50) on NK-1 (Table 1) and on hSERT (setting [1]) was 7.00 to 11.00 each time.

For the compound `CC(OCC1(c2ccc(F)cc2)CCN(C)CC1)c1cc(C(F)(F)F)cc2cccnc12` (single isomer, unassigned) [Example 70], the pIC50 at NK-1 (Table 1a, single enantiomers) is 7.00 to 11.00; at hSERT (setting [2]) it was 7.00 to 11.00.

As to `Cc1cc(COCC2(c3ccc(F)cc3F)CCNCC2)c2ncccc2c1` [Example 27], the pIC50 at NK-1 (Table 1) and at hSERT (setting [1]) was 7.00 to 11.00 throughout.

Consider `Cc1cc(COCC2(c3ccccc3)CCN(C)CC2)c2ncccc2c1` [Example 26], for which the pIC50 at NK-1 (Table 1) and at hSERT (setting [1]) was 7.00 to 11.00 throughout.

`Cc1cc(C(C)OCC2(c3ccccc3)CCN(C)CC2)c2ncccc2c1` (stereo not shown) [Example 42]: the pIC50 at NK-1 (Table 1) and on hSERT (setting [1]) was 7.00 to 11.00 in each case.

With `FC(F)(F)c1ccc2ccc(COCC3(c4ccccc4)CCNCC3)nc2c1` [Example 46, 2-(((4-phenylpiperidin-4-yl)methoxy)methyl)-7-(trifluoromethyl)quinoline], the figures for the pIC50 on NK-1 (Table 1) and at hSERT (setting [1]) were under 6.52 and 7.00 to 11.00, respectively.

For `Cc1ccc2nc(COCC3(c4ccccc4)CCNCC3)cc(C)c2c1` [Example 19, 4,6-dimethyl-2-(((4-phenylpiperidin-4-yl)methoxy)methyl)quinoline], the pIC50 was under 6.52 on NK-1 (Table 1) and 7.00 to 11.00 on hSERT (setting [1]).

On to `Nc1cc(COCC2(c3ccccc3)CCNCC2)nc2ccccc12` [Example 7], for which the pIC50 is under 6.52 on NK-1 (Table 1) and 7.00 to 11.00 on hSERT (setting [1]).

On to `Cc1cccc2nc(COCC3(c4ccccc4)CCNCC3)cc(C)c12` [Example 21], for which the negative logarithm of the IC50 (pIC50) at NK-1 (Table 1) is under 6.52; at hSERT (setting [1]) it was 7.00 to 11.00.

On to `COc1ccc2nc(COCC3(c4ccccc4)CCN(C)CC3)ccc2c1` [Example 12], for which the pIC50 on NK-1 (Table 1) was under 6.52; on hSERT, 7.00 to 11.00.

Turning to `CN1CCC(COCc2cc(-c3ccc(C#N)cc3)cc3cccnc23)(c2ccccc2)CC1` [Example 25], the values for the pIC50 at NK-1 (Table 1) and at hSERT were under 6.52 and 7.00 to 11.00, respectively.

On to `FC(F)(F)c1cccc2nc(COCC3(c4ccccc4)CCNCC3)ccc12` [Example 48, 2-(((4-phenylpiperidin-4-yl)methoxy)methyl)-5-(trifluoromethyl)quinoline], for which the pIC50 at NK-1 (Table 1) was under 6.52; at hSERT (setting [1]), 7.00 to 11.00.
